Common to all, as to format: functional, cell-based
The subject of one assay is 4T1. Nature of the assay: Cytotoxicity against mouse 4T1 cells assessed as cell viability by MTT assay. (In general: Formazan colour is commonly taken as a measure of viable cells.)
The next assay relates to HeLa. Kind of assay: Cytotoxicity against human HeLa cells assessed as cell viability by MTT assay.
In the next assay the test system is MCF7. Nature of the assay: Cytotoxicity against human MCF7 cells assessed as cell viability by MTT assay.
For the next assay, the system named is A549. Nature of the assay: Cytotoxicity against human A549 cells assessed as cell viability by MTT assay.
For a further assay, the system named is MDA-MB-231. Nature of the assay: Cytotoxicity against human MDA-MB-231 cells assessed as cell viability by MTT assay.

The text below walks through data of ChEMBL document CHEMBL5505987 (Eur J Med Chem, 2024).

Where a name gives a salt, the structure may show the parent alone.

For orientation: IC50 means the concentration that inhibits the measured activity by half.

On to `COc1cccc2c1C(=O)c1c(O)c3c(c(O)c1C2=O)C[C@@](O)(C(=O)CO)C[C@@H]3O[C@H]1C[C@H](N)[C@H](O)[C@H](C)O1` [DOXORUBICIN HYDROCHLORIDE], for which the IC50 with 4T1 was found to be 2.4 µM.

As for `O=C1C[C@H](c2ccccc2)Oc2cc(O)c([C@@H](/C=C/C[C@@H](O)CCc3ccccc3)c3ccccc3)c(O)c21`, the IC50 with HeLa came out at 2 µM; in the assay with MCF7, 8.5 µM; with A549, 5.27 µM; with MDA-MB-231, 4.05 µM.

As for `O=C1C[C@@H](c2ccccc2)Oc2cc(O)c([C@@H](/C=C/C[C@@H](O)CCc3ccccc3)c3ccccc3)c(O)c21`, the IC50 worked out at 0.67 µM with HeLa, 4.16 µM in the assay on MCF7, 3.27 µM in the assay with A549 and 1.48 µM with MDA-MB-231.
